Here are results for 28 compounds from patent US11071721B2, “Bicyclic amide compounds and methods of use thereof” (Genentech, Inc., priority 2016, dated 2021).

Chain of human RIP1 kinase domain (2-375) (Q13546 2-375): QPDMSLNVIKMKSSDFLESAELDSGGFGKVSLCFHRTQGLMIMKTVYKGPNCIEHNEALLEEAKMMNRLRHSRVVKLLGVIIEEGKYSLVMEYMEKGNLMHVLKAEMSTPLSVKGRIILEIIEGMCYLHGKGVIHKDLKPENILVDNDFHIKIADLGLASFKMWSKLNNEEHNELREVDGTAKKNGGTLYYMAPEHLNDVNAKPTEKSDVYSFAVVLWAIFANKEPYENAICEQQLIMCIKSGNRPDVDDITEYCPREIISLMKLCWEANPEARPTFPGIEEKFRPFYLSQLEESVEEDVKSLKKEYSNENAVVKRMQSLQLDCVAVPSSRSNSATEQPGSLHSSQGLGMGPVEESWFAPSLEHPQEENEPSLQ

This test addresses human RIP1 kinase domain (2-375) (Homo sapiens (Human), UniProt Q13546). In words: RIP1 kinase inhibition assay (Transcreener ADP biochemical enzyme assay). The following applies: Ki app (Morrison tight-binding fit); 50 nM enzyme, 50 uM ATP, 2 hours incubation, fluorescence polarization. Here is the method: RIP1 Kinase Inhibition Assays (Biochemical Assay):
The compounds of the present invention were tested for their capacity to inhibit RIP K activity as described below.
Enzyme assay: The ability of the receptor interacting protein kinase (RIPK1) to catalyze the hydrolysis of adenosine-5′-triphosphate (ATP) is monitored using the Transcreener ADP (adenosine-5′-diphosphate) assay (BellBrook Labs). Purified human RIP1 kinase domain (2-375) (50 nM) derived from a baculovirus-infected insect cell expression system is incubated with test compounds for 2 hours in 50 mM Hepes buffer (pH 7.5) containing 30 mM MgCl2, 1 mM dithiothreitol, 50 uM ATP, 0.002% Brij-35, and 0.5% dimethyl sulfoxide (DMSO). Reactions are quenched by the addition of 1× Bell Brooks Stop buffer B (20 mM Hepes (ph7.5), 40 mM ethylenediaminetetraacetic acid and 0.02% Brij-35) containing an additional 12 mM EDTA and 55 ug/mL ADP2 antibody and 4 nM ADP-AlexaFluor® 633 tracer. The tracer bound to the antibody is displaced by the ADP generated during the RIP1K reaction, which causes a decrease in fluorescence polarization that is measured by laser excitation at 633 nm with a FP microplate reader M1000. Fractional activity was plotted against test article concentration. Using Genedata Screener software (Genedata; Basel, Switzerland), the data were fit to the tight-binding apparent inhibition constant (Ki^app) Morrison equation [Williams, J. W. and Morrison, J. F. (1979) The kinetics of reversible tight-binding inhibition. Methods Enzymol 63: 437-67]. The following equation was used to calculate fractional activity and Ki^app:
[formula] where [E]T and [I]T are the total concentrations of active enzyme and test article, respectively.
Compound `O=C(c1nc2n(n1)C(c1ccccc1)CC2(F)F)N1CC(F)(F)C1` (racemic) [Example 1, (3,3-difluoroazetidin-1-yl)-(7,7-difluoro-5-phenyl-5,6-dihydropyrrolo[1,2-b][1,2,4]triazol-2-yl)methanone] showed a Ki of 57 nM. In turn, `O=C(c1nc2n(n1)[C@@H](c1ccccc1)C[C@@H]2F)N1CC(F)(F)C1` (racemic) [Example 2, (3,3-difluoroazetidin-1-yl)-[rac-(5R,7S)-7-fluoro-5-phenyl-6,7-dihydro-5H-pyrrolo[1,2-b][1,2,4]triazol-2-yl]methanone] showed a Ki of 478 nM. Under `O=C(c1nc2n(n1)CCC2c1ccccc1)N1CC(F)(F)C1` (racemic) [Example 4, (3,3-difluoroazetidin-1-yl)-(7-phenyl-6,7-dihydro-5H-pyrrolo[1,2-b][1,2,4]triazol-2-yl)methanone] stands 205 nM. Under `O=C(c1nc2n(n1)CCOC2c1ccccc1)N1CC(F)(F)C1` (racemic) [Example 5, (3,3-difluoroazetidin-1-yl)-(8-phenyl-6,8-dihydro-5H-[1,2,4]triazolo[5,1-c][1,4]oxazin-2-yl)methanone] stands 768 nM; under `O=C(c1nc2n(n1)CCOC2c1ccccc1F)N1CC(F)(F)C1` (racemic) [Example 6, (3,3-difluoroazetidin-1-yl)-[8-(2-fluorophenyl)-6,8-dihydro-5H-[1,2,4]triazolo[5,1-c][1,4]oxazin-2-yl]methanone], 722 nM. Under `CC(F)(F)C1CCc2nc(C(=O)N3CC(F)(F)C3)nn21` (racemic) [Example 8, (3,3-difluoroazetidin-1-yl)-[5-(1,1-difluoroethyl)-6,7-dihydro-5H-pyrrolo[1,2-b][1,2,4]triazol-2-yl]methanone] stands 8690 nM; under `O=C(c1cc2n(n1)CCOC2c1ccccc1)N1CC(F)(F)C1` (racemic) [Example 13, (3,3-difluoroazetidin-1-yl)-(4-phenyl-6,7-dihydro-4H-pyrazolo[5,1-c][1,4]oxazin-2-yl)methanone], 1140 nM; under `O=C(c1nc2n(n1)C(c1ccccc1)CC2)N1CC(F)(F)C1` (racemic) [Example 16, (3,3-difluoroazetidin-1-yl)-(5-phenyl-6,7-dihydro-H-pyrrolo[1,2-b][1,2,4]triazol-2-yl)methanone], 105 nM. For `COC1CN(C(=O)c2nc3n(n2)C(c2ccccc2)CC3)C1` (racemic) [Example 17, (3-methoxyazetidin-1-yl)-(5-phenyl-6,7-dihydro-5H-pyrrolo[1,2-b][1,2,4]triazol-2-yl)methanone], the Ki worked out at 1370 nM. As for `O=C(c1nc2n(n1)C(c1ccccc1)CC2)N1CC(F)C1` (racemic) [Example 18, (3-fluoroazetidin-1-yl)-(5-phenyl-6,7-dihydro-5H-pyrrolo[1,2-b][1,2,4]triazol-2-yl)methanone], the figure is 343 nM. Regarding `CC1CN(C(=O)c2nc3n(n2)C(c2ccccc2)CC3)C1` (racemic) [Example 19, (3-methylazetidin-1-yl)-(5-phenyl-6,7-dihydro-5H-pyrrolo[1,2-b][1,2,4]triazol-2-yl)methanone], the Ki stood at 465 nM.

The compound `CC1(F)CN(C(=O)c2nc3n(n2)C(c2ccccc2)CC3)C1` (racemic) [Example 20, (3-fluoro-3-methyl-azetidin-1-yl)-(5-phenyl-6,7-dihydro-5H-pyrrolo[1,2-b][1,2,4]triazol-2-yl)methanone] displayed a Ki of 271 nM. For `CCC1CN(C(=O)c2nc3n(n2)C(c2ccccc2)CC3)C1` (racemic) [Example 21, (3-ethylazetidin-1-yl)-(5-phenyl-6,7-dihydro-5H-pyrrolo[1,2-b][1,2,4]triazol-2-yl)methanone], the Ki is 1360 nM. As to `O=C(c1nc2n(n1)C(c1ccccc1F)CC2)N1CCC1` (racemic) [Example 22, Azetidin-1-yl-[5-(2-fluorophenyl)-6,7-dihydro-5H-pyrrolo[1,2-b][1,2,4]triazol-2-yl]methanone], the Ki is 511 nM. Turning to `O=C(c1nc2n(n1)C(c1ccccc1F)CC2)N1CC(F)(F)C1` (racemic) [Example 23, (3,3-difluroroazetidin-1-yl)-[5-(2-fluorophenyl)-6,7-dihydro-5H-pyrrolo[1,2-b][1,2,4]triazol-2-yl]methanone], the Ki came to 44 nM. Turning to `O=C(c1nc2n(n1)C(c1ccccc1F)CC2)N1CC(F)C1` (racemic) [Example 24, (3-fluoroazetidin-1-yl)-[5-(2-fluorophenyl)-6,7-dihydro-5H-pyrrolo[1,2-b][1,2,4]triazol-2-yl]methanone], the Ki is 194 nM. The compound `CNC(=O)c1nc2n(n1)C(c1ccccc1)CC2` (racemic) [Example 25, N-methyl-5-phenyl-6,7-dihydro-5H-pyrrolo[1,2-b][1,2,4]triazole-2-carboxamide] came in with a Ki of 3600 nM. Under `O=C(c1nc2n(n1)C(c1ccccc1)CC2)N1CCC1` (racemic) [Example 26, azetidin-1-yl-(5-phenyl-6,7-dihydro-5H-pyrrolo[1,2-b][1.2.4]triazol-2-yl)methanone] stands 530 nM. As for `CN(C)C(=O)c1nc2n(n1)C(c1ccccc1)CC2` (racemic) [Example 27, N,N-dimethyl-5-phenyl-6,7-dihydro-5H-pyrrolo[1,2-b][1,2,4]triazole-2-carboxamide], the figure is 2200 nM; as for `O=C(c1nc2n(n1)C(c1ccccc1)CC2)N1CC2CC1C2` (racemic) [Example 28, 2-azabicyclo[2.1.1]hexan-2-yl-(5-phenyl-6,7-dihydro-5H-pyrrolo[1,2-b][1,2,4]triazol-2-yl)methanone], 8900 nM. As for `O=C(c1nc2n(n1)C(c1ccccc1)CC2)N1CCCCC1` (racemic) [Example 29, (5-phenyl-6,7-dihydro-5H-pyrrolo[1,2-b][1,2,4]triazol-2-yl)-(1-piperidyl)methanone], the figure is 5400 nM; as for `O=C(c1nc2n(n1)C(c1ccccc1)CC2)N1CCCC1` (racemic) [Example 30, (5-phenyl-6,7-dihydro-5H-pyrrolo[1,2-b][1,2,4]triazol-2-yl)-pyrrolidin-1-yl-methanone], 6400 nM. With `CN(C)C(=O)c1nc2n(n1)C(c1ccccc1F)CC2` (racemic) [Example 33], the Ki is 1400 nM.

For the compound `O=C(c1nc2n(n1)C(c1ccccc1F)CC2)N1CCCC1` (racemic) [Example 34], the Ki is 3400 nM. Turning to `O=C(c1nc2n(n1)[C@H](c1ccccc1)C[C@H]2F)N1CC(F)C1` (racemic) [Example 35], the Ki came out at 1300 nM. As for `O=C(c1cc2n(n1)CCOC2c1ccccc1F)N1CC(F)(F)C1` (racemic) [Example 37, (3,3-difluoroazetidin-1-yl)-[4-(2-fluorophenyl)-6,7-dihydro-4H-pyrazolo[5,1-c][1,4]oxazin-2-yl]methanone], the figure is 1400 nM; as for `O=C(c1nc2n(n1)[C@@H](c1ccccc1)C[C@H]2F)N1CC(F)C1` (racemic) [Example 39], 32 nM. Under `CCC(F)(F)C1CCc2nc(C(=O)N3CC(F)(F)C3)nn21` (racemic) [Example 40, (3,3-difluoroazetidin-1-yl)-[5-(1,1-difluoropropyl)-6,7-dihydro-5H-pyrrolo[1,2-b][1,2,4]triazol-2-yl]methanone] stands 920 nM.
